Laboratory results: US11814412B2, “Artificial proteins and compositions and methods thereof” (The Trustees of the University of Pennsylvania, priority 2015, dated 2023)

Target: 3M, mammalian maquette MR reporter (de novo heme-binding maquette protein)
Settings: read-out: Kd (heme-binding affinity), current (preliminary) 3M before directed evolution

C=CC1=C(C)c2cc3[nH]c(cc4nc(cc5[nH]c(cc1n2)c(C)c5CCC(=O)O)C(CCC(=O)O)=C4C)c(C)c3C=C.[Fe] [heme]
Kd: ~1 µM
